Tested on: TXA2 agonist activity
Assay: Absence of Agonist Activity (pressor response in pithed rats)
Format: in vivo
Description: 3. Absence of Agonist Activity.

SMILES	increase in the mean arterial pressure (0.1 mg/kg i.v., at one minute after dosing)	pressor response following i.v. administration (i.v., doses up to 10 mg/kg)
O=C(O)CCC/C=C\CC1C2CCC(C2)C1NS(=O)(=O)c1ccccc1 (centres unmarked) [Example S-145]	transient, but significant, increase in the mean arterial pressure	
O=C(O)CCCC/C=C(\c1ccc(-c2nc(C(=O)NCCCCC3CCCCC3)co2)cc1)c1cccnc1 [Example 2, (E)-7-[4-[4-[[(4-Cyclohexylbutyl)amino]carbonyl]-2-oxazolyl]phenyl]-7-(3-pyridyl)hept-6-enoic Acid]		absence of a pressor response

From patent publication US5849922A, “Preparation of substituted alkenoic acids” (Eli Lilly and Company, priority 1997, dated 1998)
